In patent US10407467B2, “Polymyxin derivatives and their use in combination therapy together with different antibiotics” (priority 2013, dated 2019):
Where a name gives a salt, the structure may show the parent alone. Bridge positions count the residues as written; N and C are the ends. Square brackets hold non-standard residues; d marks the D form. Peptide text beside a SMILES is read from it. * marks the point of attachment. ξ: configuration not given here. ξHexahydromandeloyl = O=C(C(O)C1CCCCC1)*; ξβ3hGly(cHex) = NC(CC(=O)*)C1CCCCC1; Thr(3ξ) = CC(O)[C@H](N)C(=O)O; Dab = NCC[C@H](N)C(=O)O; Dap = NC[C@H](N)C(=O)O; Inp = O=C(O)C1CCNCC1

What was measured:
Type in all cases: cell-based
[1] = tested on: Acinetobacter baumannii; assay: MIC, sole activity (no second agent); details: in the absence of Rifampicin; for MIC A. baumannii ATCC13424: strain ATCC13424; for MIC A. baumannii ATCCBAA-747: strain ATCCBAA-747; for MIC A. baumannii CCUG57249: strain CCUG 57249; for MIC A. baumannii NCTC 13423: strain NCTC13423
Method in brief: (§1)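 Up to four strains per species were tested in cation-adjusted Mueller-Hinton broth, with inoculum made by direct colony suspension from 18-24 hour Mueller-Hinton agar plates, adjusted to 0.5 McFarland. Duplicates differing by under 2-fold gave the lower value; greater spread voided the run. Values are relative to Polymyxin B.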

[2] = tested on: Pseudomonas aeruginosa; assay: MIC, sole activity (no second agent); details: in the absence of Rifampicin; for MIC P. aeruginosa ATCC 27853: strain ATCC27853; for MIC P. aeruginosa ATCC-47: strain ATCC-47; for MIC P. aeruginosa ATCCCRM-9027: strain ATCCCRM-9027; for MIC P. aeruginosa CCUG 59626: strain CCUG 59626
Method in brief: as §1

[3] = tested on: Escherichia coli; assay: MIC, sole activity (no second agent); details: in the absence of Rifampicin; for MIC E. coli NCTC9001: strain NCTC9001; for MIC E. coli ATCC25922: strain ATCC25922
Method in brief: as §1

[4] = tested on: Klebsiella pneumoniae; assay: MIC, sole activity (no second agent); details: in the absence of Rifampicin; for MIC K. pneumoniae ATCC 4352: strain ATCC 4352; for MIC K. pneumoniae ATCC-BAA2146: strain ATCC-BAA2146; for MIC K. pneumoniae CCUG-59348: strain CCUG-59348
Method in brief: as §1

[5] = tested on: Acinetobacter baumannii; assay: MIC, compound in combination with a second agent (broth microdilution); details: 1:1 (wt:wt) combination with Rifampicin, MIC = total drug concentration; for MIC A. baumannii CCUG57249: strain CCUG57249; for MIC A. baumannii NCTC 13423: strain NCTC 13423; for MIC A. baumannii NCTC 13424: strain NCTC 13424; for MIC A. baumannii ATCC BAA-747: strain ATCC BAA-747
Method in brief: (§2)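 MIC values express combined concentration of test compound plus partner agent such as rifampicin, mixed at equal mass (1:1 w/w, salt-form weight). Direct colony suspensions at 0.5 McFarland, up to four strains per species, tested in duplicate; >2-fold disagreement invalid, otherwise lower value or mode of repeats reported.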

[6] = tested on: Pseudomonas aeruginosa; assay: as above; details: 1:1 (wt:wt) combination with Rifampicin, MIC = total drug concentration; for MIC P. aeruginosa ATCC 27853: strain ATCC 27853; for MIC P. aeruginosa ATCC CRM-9027: strain ATCC CRM-9027; for MIC P. aeruginosa ATCC-47: strain ATCC-47; for MIC P. aeruginosa CCUG 59626: strain CCUG 59626
Method in brief: as §2

[7] = tested on: Escherichia coli; assay: as above; details: 1:1 (wt:wt) combination with Rifampicin, MIC = total drug concentration; for MIC E. coli ATCC25922: strain ATCC25922; for MIC E. coli NCTC9001: strain NCTC9001
Method in brief: as §2

[8] = tested on: Klebsiella pneumoniae; assay: as above; details: 1:1 (wt:wt) combination with Rifampicin, MIC = total drug concentration; for MIC K. pneumoniae ATCC 4352: strain ATCC 4352; for MIC K. pneumoniae ATCC-BAA-2146: strain ATCC-BAA-2146; for MIC K. pneumoniae CCUG-59348: strain CCUG-59348
Method in brief: as §2

SMILES	MIC A. baumannii ATCC13424 [1] [micrograms/mL]	MIC A. baumannii ATCCBAA-747 [1] [micrograms/mL]	MIC A. baumannii NCTC 13423 [1] [micrograms/mL]	MIC P. aeruginosa ATCC-47 [2] [micrograms/mL]	MIC P. aeruginosa ATCCCRM-9027 [2] [micrograms/mL]	MIC P. aeruginosa CCUG 59626 [2] [micrograms/mL]	MIC E. coli NCTC9001 [3] [micrograms/mL]	MIC K. pneumoniae ATCC 4352 [4] [micrograms/mL]	MIC K. pneumoniae ATCC-BAA2146 [4] [micrograms/mL]	MIC K. pneumoniae CCUG-59348 [4] [micrograms/mL]	MIC A. baumannii CCUG57249 [5] [micrograms/mL]	MIC A. baumannii NCTC 13423 [5] [micrograms/mL]	MIC P. aeruginosa ATCC 27853 [6] [micrograms/mL]	MIC P. aeruginosa ATCC CRM-9027 [6] [micrograms/mL]	MIC P. aeruginosa ATCC-47 [6] [micrograms/mL]	MIC P. aeruginosa CCUG 59626 [6] [micrograms/mL]	MIC E. coli ATCC25922 [7] [micrograms/mL]	MIC K. pneumoniae ATCC 4352 [8] [micrograms/mL]	MIC K. pneumoniae ATCC-BAA-2146 [8] [micrograms/mL]	MIC K. pneumoniae CCUG-59348 [8] [micrograms/mL]	also measured
CC(C)C[C@@H]1NC(=O)[C@@H](Cc2ccccc2)NC(=O)[C@H](CCN)NC(=O)[C@@H](NC(=O)[C@H](CN)NC(=O)[C@@H](NC(=O)C(O)C2CCCCC2)C(C)O)CCNC(=O)[C@H](C(C)O)NC(=O)[C@H](CCN)NC(=O)[C@H](CCN)NC1=O (stereo partly drawn) [Example 45, [2-cyclohexyl-2-hydroxyethanoyl]-L-Thr-L-Dap-polymyxin B heptapeptide, TFA salt] (ξHexahydromandeloyl-[Thr(3ξ)][Dap][Dab][Dab][dF]L[Dab][Dab][Thr(3ξ)]; lactam 3-C)	1	2	1	1	0.125	0.125	16	0.25	2	32	0.25	0.125	0.5	0.5	0.25	0.25	≤0.06	0.25	0.5	1	MIC A. baumannii CCUG57249 [1]: 2 micrograms/mL; MIC P. aeruginosa ATCC 27853 [2]: 0.25 micrograms/mL; MIC A. baumannii NCTC 13424 [5]: 0.125 micrograms/mL
CC(C)C[C@@H]1NC(=O)[C@@H](Cc2ccccc2)NC(=O)[C@H](CCN)NC(=O)[C@@H](NC(=O)[C@@H](CO)NC(=O)[C@@H](NC(=O)CC(N)C2CCCCC2)[C@@H](C)O)CCNC(=O)[C@H](C(C)O)NC(=O)[C@H](CCN)NC(=O)[C@H](CCN)NC1=O (stereo partly drawn) [Example 48, [3-Amino-3-cyclohexyl-propionyl]-L-Thr-D-Ser-polymyxin B heptapeptide, TFA salt] ({ξβ3hGly(cHex)}-T[dS][Dab][Dab][dF]L[Dab][Dab][Thr(3ξ)]; lactam 3-C)		0.25	0.25	8	0.5	1	>32	0.5	4	>32	≤0.06	0.125	1	1	2	1	0.25	0.25	2	2	MIC P. aeruginosa ATCC 27853 [2]: 4 micrograms/mL; MIC A. baumannii ATCC BAA-747 [5]: 0.125 micrograms/mL; MIC A. baumannii NCTC 13424 [5]: ≤0.06 micrograms/mL; MIC E. coli NCTC9001 [7]: 0.5 micrograms/mL
CC(C)C[C@H]1NC(=O)[C@H](CCN)NC(=O)[C@@H](NC(=O)[C@H](CCN)NC(=O)[C@@H](NC(=O)CC(N)C2CCCCC2)C(C)O)CCNC(=O)[C@H](C(C)O)NC(=O)[C@H](CCN)NC(=O)[C@H](CCN)NC(=O)[C@H](C(C)O)NC1=O (stereo partly drawn) [Example 50, 3-Amino-3-cyclohexyl propanoyl-Thr-Dab-(cyclo)Dab*-Dab-DLeu-Thr-Dab-Dab-Thr*] ({ξβ3hGly(cHex)}-[Thr(3ξ)][Dab][Dab][Dab][dL][Thr(3ξ)][Dab][Dab][Thr(3ξ)]; lactam 3-C)	4	4	2	32	0.5	2	>32	4	16	>32	0.125	0.125	0.125	0.125	0.25	0.25	≤0.06	≤0.06	0.25	8	MIC A. baumannii CCUG57249 [1]: 4 micrograms/mL; MIC P. aeruginosa ATCC 27853 [2]: 32 micrograms/mL; MIC E. coli ATCC25922 [3]: >32 micrograms/mL; MIC A. baumannii ATCC BAA-747 [5]: 0.125 micrograms/mL; MIC A. baumannii NCTC 13424 [5]: 0.125 micrograms/mL; MIC E. coli NCTC9001 [7]: 0.125 micrograms/mL
CC(C)C[C@@H]1NC(=O)[C@@H](Cc2ccccc2)NC(=O)[C@H](CCN)NC(=O)[C@@H](NC(=O)[C@H](CCCCN)NC(=O)[C@@H](NC(=O)C2CCNCC2)C(C)O)CCNC(=O)[C@H](C(C)O)NC(=O)[C@H](CCN)NC(=O)[C@H](CCN)NC1=O (stereo partly drawn) [Example 51, Piperidin-4-yl carbonyl-L-Thr-L-Lys-polymyxin B heptapeptide, TFA salt] (H-[Inp][Thr(3ξ)]K[Dab][Dab][dF]L[Dab][Dab][Thr(3ξ)]; lactam 4-C)	4	4	8	32	0.125	0.25	>32	2	>32	>32	≤0.06	0.125	0.25	0.25	0.5	0.5	0.125	0.125	1	4	MIC A. baumannii CCUG57249 [1]: 4 micrograms/mL; MIC E. coli ATCC25922 [3]: >32 micrograms/mL; MIC A. baumannii ATCC BAA-747 [5]: ≤0.06 micrograms/mL; MIC E. coli NCTC9001 [7]: 0.5 micrograms/mL
